Reference: patent publication US10376481B2, “Compounds and methods for inhibiting NHE-mediated antiport in the treatment of disorders associated with fluid retention or salt overload and gastrointestinal tract disorders” (ARDELYX, INC, priority 2012, dated 2019)

Assays:
[1] = biological target: T1, human NHE3 (Homo sapiens, UniProt P48764); experiment: Cell-based assay of NHE-3 activity (human NHE3 inhibition assay); design: expressed in transfected cells; host or cells: Opossum kidney (OK) cells (ATCC), electroporated; conditions: OK cells with human NHE-3 gene, BCECF pH recovery, 0-30 μM test compound; read-out: Human NHE3 pIC50 (converted)
T1 sequence (P48764 26-834): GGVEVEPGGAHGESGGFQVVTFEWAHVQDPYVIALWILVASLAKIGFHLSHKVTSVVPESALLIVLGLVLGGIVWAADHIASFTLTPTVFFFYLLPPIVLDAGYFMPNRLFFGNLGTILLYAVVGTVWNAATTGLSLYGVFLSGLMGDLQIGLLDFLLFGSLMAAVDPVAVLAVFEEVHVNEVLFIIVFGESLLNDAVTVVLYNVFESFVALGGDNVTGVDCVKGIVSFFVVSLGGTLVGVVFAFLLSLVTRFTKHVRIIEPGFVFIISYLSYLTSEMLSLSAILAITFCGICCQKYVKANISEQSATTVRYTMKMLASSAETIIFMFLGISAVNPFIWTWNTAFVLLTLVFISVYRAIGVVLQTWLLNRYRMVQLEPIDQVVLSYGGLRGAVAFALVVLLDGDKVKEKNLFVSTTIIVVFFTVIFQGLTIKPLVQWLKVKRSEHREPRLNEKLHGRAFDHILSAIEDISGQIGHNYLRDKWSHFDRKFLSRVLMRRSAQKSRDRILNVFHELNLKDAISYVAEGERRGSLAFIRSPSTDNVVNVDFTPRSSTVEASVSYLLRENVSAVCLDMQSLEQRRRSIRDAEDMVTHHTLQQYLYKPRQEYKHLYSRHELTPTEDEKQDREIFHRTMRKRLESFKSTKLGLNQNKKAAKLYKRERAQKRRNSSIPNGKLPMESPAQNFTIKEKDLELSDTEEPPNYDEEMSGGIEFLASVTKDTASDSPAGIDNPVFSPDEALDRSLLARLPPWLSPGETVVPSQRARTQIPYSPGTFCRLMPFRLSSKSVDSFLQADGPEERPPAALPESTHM
Method in brief: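 Opossum kidney cells electroporated with rat or human NHE-3, loaded with 5 μM BCECF-AM in NH4Cl-HEPES pH 7.4 for 30 min at RT, then acidified 10 min in Na+-free choline HEPES. Na+-dependent pH recovery rates from BCECF fluorescence, averaged over ≥2 replicates, gave pIC50.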

[2] = biological target: T1, human NHE3; experiment: Cell-based assay of NHE-3 activity (persistent inhibition), human; conditions: PS120 fibroblasts stably expressing human NHE3, 60 min incubation then washout; for IC50: read-out: pIC50 (human Persistence assay) (converted)
Experimental: The ability of compounds to inhibit human and rat NHE-3-mediated Na^+-dependent H^+ antiport after application and washout was measured using a modification of the pH sensitive dye method described above. PS120 fibroblasts stably expressing human NHE3 were obtained from Mark Donowitz (Baltimore, Md.). Opossum kidney (OK) cells were obtained from the ATCC and propagated per their instructions. The rat NHE-3 gene was introduced into OK cells via electroporation, and cells were seeded into 96 well plates and grown overnight. Medium was aspirated from the wells, cells were washed once with NaCl-HEPES buffer (100 mM NaCl, 50 mM HEPES, 10 mM glucose, 5 mM KCl, 2 mM CaCl2, 1 mM MgCl2, pH 7.4), then overlayed with NaCl-HEPES buffer containing 0-30 μM test compound. After a 60 min incubation at room temperature, the test drug containing buffer was aspirated from the cells. Following aspiration, cells were washed once with NaCl-HEPES buffer without drug, then incubated for 30 min at 37° C. with NH4Cl-HEPES buffer (20 mM NH4Cl, 80 mM NaCl, 50 mM HEPES, 5 mM KCl, 2 mM CaCl2, 1 mM MgCl2, pH 7.4) containing 5 μM BCECF-AM. Cells were washed once with Ammonium free, Na^+-free HEPES (100 mM choline, 50 mM HEPES, 10 mM glucose, 5 mM KCl, 2 mM CaCl2, 1 mM MgCl2, pH 7.4) and incubated in the same buffer for 10 minutes at room temperature to lower intracellular pH. NHE-3-mediated recovery of neutral intracellular pH was initiated (10 min after compound washout) by addition of Na-HEPES buffer. […] Changes in intracellular pH were monitored using a FLIPR Tetra® (Molecular Devices, Sunnyvale, Calif.) by excitation at λex 439 to 505 nm, and measuring BCECF fluorescence at λem 538 nm. The initial rate of the fluorescence ratio change was used as a measure of NHE-mediated Na^+/H^+ activity, and reported as the change in fluorescence ratio per minute. Initial rates were plotted as the average 2 or more replicates, and pIC50 values were estimated using GraphPad Prism.

IC50 [1] | % inhibition (human Persistence assay) [2] | IC50 [2] | Structure (SMILES)
< 0.1 µM | C (>70%) | < 0.1 µM | CN(C)[C@H]1Cc2c(Cl)cc(Cl)cc2[C@@H]1Oc1ccc(S(=O)(=O)NCCOCCOCCNC(=O)NCCCCNC(=O)NCCOCCOCCNS(=O)(=O)c2ccc(O[C@H]3c4cc(Cl)cc(Cl)c4C[C@@H]3N(C)C)cc2)cc1 [Example 1, (S,S)—N,N′-(10,17-dioxo-3,6,21,24-tetraoxa-9,11,16,18-tetraazahexacosane-1,26-diyl)bis(4-((1S,2S)-4,6-dichloro-2-(dimethylamino)-2,3-dihydro-1H-inden-1-yloxy)benzenesulfonamide)]
< 0.1 µM | C (>70%) | < 0.1 µM | O=C(NCCCCNC(=O)NCCOCCOCCNS(=O)(=O)c1ccc(O[C@H]2c3cc(Cl)cc(Cl)c3C[C@@H]2N2CC[C@@H](O)C2)cc1)NCCOCCOCCNS(=O)(=O)c1ccc(O[C@H]2c3cc(Cl)cc(Cl)c3C[C@@H]2N2CC[C@@H](O)C2)cc1 [Example 30]
< 0.1 µM | C (>70%) | < 0.1 µM | N[C@@H]1CCCN([C@H]2Cc3c(Cl)cc(Cl)cc3[C@@H]2Oc2ccc(S(=O)(=O)NCCOCCOCCNC(=O)NCCCCNC(=O)NCCOCCOCCNS(=O)(=O)c3ccc(O[C@H]4c5cc(Cl)cc(Cl)c5C[C@@H]4N4CCC[C@@H](N)C4)cc3)cc2)C1 [Example 3, (S,S,R)—N,N′-(10,17-dioxo-3,6,21,24-tetraoxa-9,11,16,18-tetraazahexacosane-1,26-diyl)bis(4-((1S,2S)-2-((R)-3-aminopiperidin-1-yl)-4,6-dichloro-2,3-dihydro-1H-inden-1-yloxy)benzenesulfonamide)]
< 0.1 µM | B (40-70%) | < 0.1 µM | CN(C)[C@H]1Cc2c(Cl)cc(Cl)cc2[C@@H]1Oc1ccc(S(=O)(=O)NCCOCCOCCNC(=O)CCC(C)(N)CCC(=O)NCCOCCOCCNS(=O)(=O)c2ccc(O[C@H]3c4cc(Cl)cc(Cl)c4C[C@@H]3N(C)C)cc2)cc1 [Example 11, 4-amino-N1,N7-bis(2-(2-(2-(4-((1S,2S)-4,6-dichloro-2-(dimethylamino)-2,3-dihydro-1H-inden-1-yloxy)phenylsulfonamido)ethoxy)ethoxy)ethyl)-4-methylheptanediamide]
